Earlier results in patent US6579895B2, “Use of a celecoxib composition for fast pain relief” (Pharmacia Corporation, priority 2000, dated 2003).

Assays:
post-surgical pain = conditions: ibuprofen 400 mg; e.g. post-surgical pain
plasma albumin = plasma albumin (Homo sapiens, UniProt P02768); conditions: following oral administration
Sequence of plasma albumin (P02768 25-609): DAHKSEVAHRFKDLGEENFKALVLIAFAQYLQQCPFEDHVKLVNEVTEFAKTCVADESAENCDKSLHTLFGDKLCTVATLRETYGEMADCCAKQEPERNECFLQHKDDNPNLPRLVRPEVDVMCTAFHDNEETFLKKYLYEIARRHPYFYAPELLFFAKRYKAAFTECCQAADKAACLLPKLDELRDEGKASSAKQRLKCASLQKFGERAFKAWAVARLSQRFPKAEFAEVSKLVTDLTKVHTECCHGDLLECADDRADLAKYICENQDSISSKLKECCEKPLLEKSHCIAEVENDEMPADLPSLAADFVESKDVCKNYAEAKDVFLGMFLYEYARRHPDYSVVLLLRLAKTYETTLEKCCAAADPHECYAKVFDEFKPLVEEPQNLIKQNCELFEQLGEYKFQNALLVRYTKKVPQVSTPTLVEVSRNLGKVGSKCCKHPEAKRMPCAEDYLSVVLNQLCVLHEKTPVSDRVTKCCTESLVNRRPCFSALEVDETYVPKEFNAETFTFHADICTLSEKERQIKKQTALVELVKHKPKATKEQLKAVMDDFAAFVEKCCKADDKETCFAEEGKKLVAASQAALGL

Row | Compound | time after administration to an adequate level of suppression of pain (post-surgical pain) | binding to plasma albumin (plasma albumin)
1 | CC(C)Cc1ccc(C(C)C(=O)O)cc1 (centres unmarked) [Ibuprofen, ibuprofen] | about 1 hour | –
2 | Cc1ccc(-c2cc(C(F)(F)F)nn2-c2ccc(S(N)(=O)=O)cc2)cc1 [celecoxib, 4-[5-(4-methylphenyl)-3-(trifluoromethyl)-1H-pyrazol-1-y1]benzenesulfonamide] | – | extensive binding
